Measured values as given in US20180256673A1, “METHODS FOR TREATING FUNGAL INFECTIONS” (priority 2015, published 2018).
Read-outs that look alike come from different tables or passages of the source. Starred links: 1 amine or outer side, 2 acyl side, 3 side chain; linkers in the order of their positions; H or OH if unused. Positions of bridges follow the written chain, without caps; N, C: chain ends. Non-standard residues stand in square brackets, D forms with d. Residues, ends and D or L forms follow the SMILES beside them. *: point of attachment. Orn(4R-OH,5R-OCH2CH2NMe3+) = C[N+](C)(C)CCO[C@@H](N[*:3])[C@H](O)C[C@H](N[*:1])C(=O)[*:2]; pTerphenylCO(4''-OnC5H11) = CCCCCOc1ccc(-c2ccc(-c3ccc(C(=O)*)cc3)cc2)cc1; hTyr(3S-OH,4S-OH) = N[C@H](C(=O)O)[C@H](O)[C@@H](O)c1ccc(O)cc1; Pro(3S-OH,4S-Me) = C[C@H]1CN[C@H](C(=O)O)[C@H]1O; Hyp = O=C(O)[C@@H]1C[C@@H](O)CN1

How the values were obtained:
[1] = system: C. albicans vaginal isolates; assay: Susceptibility testing of VVC clinical isolates at pH 7 and 4 (CLSI M27-A3); format: cell-based, Candida albicans; conditions: for MIC90 / MIC: Candida albicans
[2] = system: C. parapsilosis vaginal isolates; assay: as above; format: cell-based, Candida parapsilosis
Candida krusei = assay: Broth microdilution of invasive fungal isolates (CLSI M27-A3/M38-A2); format: cell-based; conditions: 16 isolates
[3] = system: C. glabrata vaginal isolates; assay: Susceptibility testing of VVC clinical isolates at pH 7 and 4 (CLSI M27-A3); format: cell-based, Candida glabrata; conditions: for MIC90: Nakaseomyces glabratus

CCCCCOc1ccc(-c2ccc(-c3ccc(C(=O)N[C@H]4C[C@@H](O)[C@@H](OCC[N+](C)(C)C)NC(=O)[C@@H]5[C@@H](O)[C@@H](C)CN5C(=O)[C@H]([C@@H](C)O)NC(=O)[C@H]([C@H](O)[C@@H](O)c5ccc(O)cc5)NC(=O)[C@@H]5C[C@@H](O)CN5C(=O)[C@H]([C@@H](C)O)NC4=O)cc3)cc2)cc1 [Compound 1] ({pTerphenylCO(4''-OnC5H11)}-[Orn(4R-OH,5R-OCH2CH2NMe3+)]T[Hyp][hTyr(3S-OH,4S-OH)]T[Pro(3S-OH,4S-Me)]; lactam 1-C)
Number of isolates at MIC 0.03 μg/mL ([1]; 60 VVC isolates, 48 h, pH 7): 29
Number of isolates at MIC 0.06 μg/mL ([1]; 60 VVC isolates, 48 h, pH 7): 16
Number of isolates at MIC 0.125 μg/mL ([1]; 60 VVC isolates, 48 h, pH 7): 9
Number of isolates at MIC 0.25 μg/mL ([1]; 60 VVC isolates, 48 h, pH 7): 1
Number of isolates at MIC 0.5 μg/mL ([1]; 60 VVC isolates, 48 h, pH 7): 1
Number of isolates at MIC 1 μg/mL ([1]; 60 VVC isolates, 48 h, pH 7): 2
Number of isolates at MIC […] ([1]; 60 VVC isolates, 48 h, pH 7): 2
MIC90 ([1]; 48 h, pH 4): 0.5 µg/mL
MIC ([1]; 48 h, pH 4, fluconazole-resistant isolate 1, pH 4, 48 h, read-out: MIC): 0.5 µg/mL
MIC ([1]; 48 h, pH 4, fluconazole-resistant isolate 2, pH 4): 0.125 µg/mL
MIC ([1]; 48 h, pH 4, fluconazole-resistant isolate 3, pH 4, 48 h, read-out: MIC): 0.5 µg/mL
MIC ([1]; 48 h, pH 4, fluconazole-resistant isolate 4, pH 4, 48 h, read-out: MIC): 0.25 µg/mL
MIC ([1]; 48 h, pH 4, fluconazole-resistant isolate 6, pH 4, 48 h, read-out: MIC): 0.5 µg/mL
MIC ([1]; 48 h, pH 4, fluconazole-resistant isolate 7, pH 4, 48 h, read-out: MIC): 0.5 µg/mL
MIC ([1]; 48 h, pH 4, fluconazole-resistant isolate 9, pH 4, 48 h, read-out: MIC): 1 µg/mL
MIC90 ([1]; 48 h, pH 7): 0.125 µg/mL
MIC ([1]; 48 h, pH 7, fluconazole-resistant isolate 1, pH 7, 48 h, read-out: MIC): 0.03 µg/mL
MIC ([1]; 48 h, pH 7, fluconazole-resistant isolate 2, pH 7): 0.25 µg/mL
MIC ([1]; 48 h, pH 7, fluconazole-resistant isolate 3, pH 7, 48 h, read-out: MIC): 0.03 µg/mL
MIC ([1]; 48 h, pH 7, fluconazole-resistant isolate 4, pH 7, 48 h, read-out: MIC): 0.06 µg/mL
MIC ([1]; 48 h, pH 7, fluconazole-resistant isolate 5, pH 7): 0.125 µg/mL
MIC ([1]; 48 h, pH 7, fluconazole-resistant isolate 6, pH 7, 48 h, read-out: MIC): 0.03 µg/mL
MIC ([1]; 48 h, pH 7, fluconazole-resistant isolate 7, pH 7, 48 h, read-out: MIC): 0.03 µg/mL
MIC ([1]; 48 h, pH 7, fluconazole-resistant isolate 8, pH 7): 0.125 µg/mL
MIC ([1]; 48 h, pH 7, fluconazole-resistant isolate 9, pH 7, 48 h, read-out: MIC): 1 µg/mL
MIC ([1]; 48 h, pH 7, fluconazole-resistant isolate 10, pH 7): 0.125 µg/mL
MIC90 ([1]; 60 isolates, pH 4, 24 h, read-out: MIC90): 0.25 µg/mL
MIC90 ([1]; 60 isolates, pH 7, 24 h, read-out: MIC90): 0.06 µg/mL
MIC90 ([2]; 24 h, pH 4): 2 µg/mL
MIC90 ([2]; 24 h, pH 7): 2 µg/mL
MIC90 ([2]; 48 h, pH 4): 2 µg/mL
MIC90 ([2]; 48 h, pH 7): 4 µg/mL
Cumulative % of isolates inhibited at MIC 0.015 μg/mL (Candida krusei): (18.8) %
Cumulative % of isolates inhibited at MIC 0.03 μg/mL (Candida krusei): (87.5) %
Cumulative % of isolates inhibited at MIC 0.06 μg/mL (Candida krusei): (100.0) %
Number of isolates inhibited at MIC 0.015 μg/mL (Candida krusei): 3
Number of isolates inhibited at MIC 0.03 μg/mL (Candida krusei): 11
Number of isolates inhibited at MIC 0.06 μg/mL (Candida krusei): 2
concentration at which all isolates were inhibited (Candida krusei): ≤ 0.06 µg/mL
MIC50 (Candida krusei; Pichia kudriavzevii, read-out: MIC50): 0.03 µg/mL
MIC90 (Candida krusei; Pichia kudriavzevii, read-out: MIC90): 0.06 µg/mL
Number of isolates at MIC 0.125 μg/mL ([3]; 21 VVC isolates, 24 h, pH 4): 2
Number of isolates at MIC 0.25 μg/mL ([3]; 21 VVC isolates, 24 h, pH 4): 3
Number of isolates at MIC 0.5 μg/mL ([3]; 21 VVC isolates, 24 h, pH 4): 15
Number of isolates at MIC 2 μg/mL ([3]; 21 VVC isolates, 24 h, pH 4): 1
Number of isolates at MIC 0.06 μg/mL ([3]; 21 VVC isolates, 24 h, pH 7): 3
Number of isolates at MIC 0.125 μg/mL ([3]; 21 VVC isolates, 24 h, pH 7): 17
Number of isolates at MIC 2 μg/mL ([3]; 21 VVC isolates, 24 h, pH 7): 1
Number of isolates at MIC 0.25 μg/mL ([3]; 21 VVC isolates, 48 h, pH 4): 2
Number of isolates at MIC 0.5 μg/mL ([3]; 21 VVC isolates, 48 h, pH 4): 8
Number of isolates at MIC 1 μg/mL ([3]; 21 VVC isolates, 48 h, pH 4): 9
Number of isolates at MIC 2 μg/mL ([3]; 21 VVC isolates, 48 h, pH 4): 2
Number of isolates at MIC 0.06 μg/mL ([3]; 21 VVC isolates, 48 h, pH 7): 2
Number of isolates at MIC 0.125 μg/mL ([3]; 21 VVC isolates, 48 h, pH 7): 16
Number of isolates at MIC 0.25 μg/mL ([3]; 21 VVC isolates, 48 h, pH 7): 1
Number of isolates at MIC 0.5 μg/mL ([3]; 21 VVC isolates, 48 h, pH 7): 1
Number of isolates at MIC 2 μg/mL ([3]; 21 VVC isolates, 48 h, pH 7): 1
MIC90 ([3]; 24 h, pH 4): 0.5 µg/mL
MIC90 ([3]; 24 h, pH 7): 0.125 µg/mL
MIC90 ([3]; 48 h, pH 4): 1 µg/mL
MIC90 ([3]; 48 h, pH 7): 0.25 µg/mL
